Where “and” joins values, the source holds several entries; their conditions need not be identical. Equal entries are not always repeated. Entries after “also recorded” stand apart in the source; their conditions may differ. Where two headings read alike, the source gives them in different places.
Legend:
[1] = test system: [^3 H]DA release from rat striatal slices; experiment: [3H]DA release assay: compound-evoked (intrinsic agonist) release; format: cell-based
Description: (§1) Biological Methods. Male Spragua-Dawley rats (150-200 g) were obtained from Harlan Laboratories (Indianapolis, Ind.) and were housed two per cage with free access to food and water in the Division of Lab Animal Resources at the College of Pharmacy at the University of Kentucky. Experimental protocols involving the animals were approved by the Institutional Animal Care and Use Committee at the University of Kentucky.
(§2) [^3 H]DA Release Assay. Rat striatal slices (500 μm thickness, 6-8 mg wet weight) were obtained as previously described (Dwoskin and Zahniser, 1986). Slices were incubated for 30 min in Krebs' buffer ([…]; 118 NaCl, 4.7 KCl, 1.2 MgCl2, 1.0 NaH2 PO4, 1.3 CaCl2, […], 11.1 glucose, 25 NaHCO3, 0.11 L-ascorbic acid nd 0.004 disodium EDTA; pH 7.4 and saturated with 95% O2 /5% CO2) in a metabolic shaker at 34°. Slices were rinsed with 15 ml of fresh buffer and incubated for an additional 30 min in fresh buffer containing 0.1 μM [^3 H]dopamine (6 slices/3 ml). Subsequently, slices were rinsed with 15 ml of fresh buffer and transferred to a glass superfusion chamber. Slices were superfused (1.0 ml/min) for 60 min with Krebs' buffer containing nomifensine (10 μm) and pargyline (10 μm) and maintained at 34° C., pH 7.4 with continual aeration (95% O2 /5% CO2). Two 5-min samples (5 ml) were collected to determine basal outflow of [^3 H]DA. N-Substituted nicotine analogues were added to the superfusion buffer after the collection of the second sample and remained in the buffer until 12 consecutive 5-min samples were collected. […] At the end of the experiment each slice was solubilized and the [^3 H] content of the tissue determined.
(§3) Radioactivity in the superfusate and tissue samples was determined by liquid scintillation spectroscopy. Fractional release for each superfusate sample was calculated by dividing the total tritium collected in each sample by the total tritium present in the tissue at the time of sample collection. Basal [^3 H]out flow was calculated from the average of the tritium collected in the two 5-min samples just before addition of the N-substituted nicotine analogue. The sums of the increase in collected tritium resulting from either exposure to the test compound or exposure to nicotine in the absence and presence of the test compound equaled total [^3 H]overflow. [^3 H]overflow was calculated by subtracting the [^3 H]outflow during an equivalent period of prestimulation from the values in samples collected during and after drug exposure. Inasmuch as the radiolabelled compounds were not separated and identified, the tritium collected in superfusate is referred to as either [^3 H]outflow or [^3 H]overflow, rather than as [^3 H]DA. [^3 H]Overflow primarily represents [^3 H]DA in the presence of nomifensine and pargyline in the superfusion buffer (Zumstein et al. 1981).

[2] = test system: S(-)nicotine (10 μM)-evoked [^3 H]DA release from rat striatal slices; format: cell-based
Description: as §1, §2, §3
In these experiments, the striatal slices were superfused for 60 min with various concentrations of the analogues prior to nicotine (10 μM) exposure. Antagonist activity was evaluated by comparing the nicotine-evoked [^3 H]overflow in the absence and presence of the analogues. […] The relative order of potency of the classical and pyridine-N substituted nicotine analogues for inhibition of nicotine-evoked [^3 H]DA release from rat striatal slices is illustrated in FIG. 2 by a comparison of their IC50 values.
FIG. 2. IC50 values for N-substituted analogues of nicotine, nornicotine, and cotinine to inhibit nicotine-evoked [^3 H]DA release from rat striatal slices. Inhibition produced by the classical nicotinic inhibitors, mecamylamine (MEC) and DHBE was also determined. Slices were superfused with inhibitor for 60 min […] co-superfusion with 10 μM nicotine. Inhibition was determined by comparing [^3 H]DA release in the absence and presence of various concentrations of inhibitor. IC50 values were determined using the Logit-log plot (pseudo-Hill plot). […] IC50 for each animal was determined as the intercept of the linear regression.

physchem = experiment: physchem
Description: (§4) pKa Determination. A solution [1 g in 12 mls of deuterium oxide 100% atom D] of the compound under investigation was gradually acidified by drop-wise addition of a solution of DC1 to D2 O (20% wt/wt, 99.5% atom D). The pD values were measured on a Corning pH meter. For each pD value, a sample (0.8 mls) was analyzed by ^1 H-NMR on a Varian Unity 300 MHz spectrometer using sodium 3(trimethylsilyl)-2,2,3,3-d4 -propionate (TSP) as internal reference. Protonation of the pyrrolidine- and pyridine-N atoms was followed by observing the variation in chemical shift of the N-1'-methyl and 2'-proton signals from pO 8.8 to pD 3.0. A titration curve of pD vs chemical shift was constructed to determine the pKa values of pyrrolidino-N atom and/or the pyridine-N atom.
as §4, with “Computational Chemistry.” for “pKa Determination.”, “3-(trimethylsilyl)-2,2,3,3-d4” for “3(trimethylsilyl)-2,2,3,3-d4”, “N-1'methyl” for “N-1'-methyl”, “pD” for “pO”

[3] = test system: rat striatal synaptosomes; details: cited from earlier work
[4] = test system: rat hypothalamic and corticotropin-releasing hormone secretion; details: cited from earlier work
[5] = Table 3, 1 μM, mean ± S.E.M., rat striatal slices
[6] = Table 3, 10 μM, mean ± S.E.M., rat striatal slices
[7] = Table 3, 100 μM, mean ± S.E.M., rat striatal slices

Row | SMILES | total [3H]overflow (effect on [3H]DA release) [1, 5] | total [3H]overflow (effect on [3H]DA release) [1, 6] | total [3H]overflow (effect on [3H]DA release) [1, 7] | nicotinic antagonist activity / inhibition of nicotine-evoked [3H]DA release (in words) [2] | relative order of potency for inhibition of nicotine-evoked [3H]DA release (comparison of IC50 values) [2] | total [3H]overflow during cosuperfusion with 10 μM nicotine [2] | further results
1 | C=CC[n+]1cccc([C@@H]2CCCN2C)c1 [NANI, S-N-allylnicotiniumiodide] | 0.02 ± 0.02 | 0.07 ± 0.04 | 0.08 ± 0.03 | Significant antagonist activity; also recorded: significantly lower potency and efficacy; also recorded: possessing antagonist activity; also recorded: preferred nicotinic receptor antagonist activity | NBNB=NPNI=NnNBI=NANI>NHENI |  | pKa (physchem; d2o, pKa of pyrrolidino-N (N'-amino) functionality, 1H-NMR): 6.4; predominant ionization form (physchem; physiological pH): exist predominantly in their unprotonated form at physiological pH
2 | O=c1cccc2n1C[C@@H]1CNC[C@H]2C1 [S(-)cytisine, reference compound] |  |  |  |  |  |  | effect on [3H]DA release / intrinsic agonist activity (in words) [1]: only marginally released dopamine from the striatal slice; total [3H]overflow (effect on [3H]DA release) [1]: 0.67 ± 0.26 and 0.85 ± 0.38 and 1.13 ± 0.46; Emax ([1]; Rattus norvegicus, read-out: evoked [3H]DA release relative to nicotine): ~20%; effect on [3H]dopamine release from rat striatal synaptosomes [3]: lesser effect of cytisine compared to nicotine in evoking dopamine release from rat striatal synaptosomes
3 | CN1[C@@H]2CC[C@H]1C[C@@H](OC(=O)C(CO)c1ccccc1)C2 (some centres unmarked) [atropine] |  |  |  |  |  |  | effect on IR-rCRH secretion (in words) [4]: This effect was antagonized by the simultaneous presence of atropine and hexamethonium
4 | C[N+](C)(C)CCOC(N)=O [carbachol] |  |  |  |  |  |  | effect on IR-rCRH secretion (in words) ([4]; in vitro, p less than 0.05 for antagonists of acetylcholine): stimulated IR-rCRH secretion in a dose-dependent fashion
5 | C=CCN1CCCC1c1ccc[n+](CC=C)c1 (racemic) [(±)DNANI, (±)di-N-allyl nicotinium iodide] | 0.02 ± 0.01 | 0.08 ± 0.04 | 0.00 ± 0.00 | did not exhibit significant nicotinic antagonist activity over the concentration range tested; also recorded: relatively weak antagonist activity compared to the N-allyl nicotine analogue (NANI) | (±)di-N-allyl nicotinium iodide (DNANI)=(±)N-methyl nornicotinium iodide (NMNNI)=NMNI | 2.58 ± 0.54 and 1.85 ± 0.25 and 1.66 ± 0.36 | 
6 | C[N+](C)(C)CCCCCC[N+](C)(C)C [hexamethonium] |  |  |  |  |  |  | effect on IR-rCRH secretion (in words) [4]: This effect was antagonized by the simultaneous presence of atropine and hexamethonium
7 | CN1CCC[C@H]1c1ccc[n+](Cc2ccccc2)c1 [NBNB, S-N-benzyl nicotinium bromide] | 0.21 ± 0.12 | 0.28 ± 0.12 | 6.04 ± 0.97 | Significant antagonist activity; also recorded: significantly lower potency and efficacy; also recorded: possessing antagonist activity; also recorded: preferred nicotinic receptor antagonist activity | NBNB=NPNI=NnNBI=NANI>NHENI | 1.50 ± 0.55 and 1.27 ± 0.35 | effect on [3H]DA release / intrinsic agonist activity (in words) ([1]; rat striatal slices, 1-100 μM): evoked [^3 H]DA release and thus, possess intrinsic agonist activity at this concentration
8 | CCCC[n+]1cccc([C@@H]2CCCN2C)c1 [NnBNI, S-N-nbutyl nicotinium iodine] | 0.00 ± 0.00 | 0.01 ± 0.01 | 0.01 ± 0.01 | Significant antagonist activity; also recorded: significantly lower potency and efficacy; also recorded: preferred nicotinic receptor antagonist activity | NBNB=NPNI=NnNBI=NANI>NHENI |  | 
9 | CCC[n+]1cccc([C@@H]2CCCN2C)c1 [NPNI, S-N-propyl nicotinium iodide] | 0.06 ± 0.01 | 0.03 ± 0.03 | 0.03 ± 0.03 | Significant antagonist activity; also recorded: significantly lower potency and efficacy; also recorded: preferred nicotinic receptor antagonist activity | NBNB=NPNI=NnNBI=NANI>NHENI |  | 
10 | C[n+]1cccc(C2CCCN2)c1 (racemic) [(±)NMNNI, (±)N-methyl nornicotinium iodide] | 0.17 ± 0.11 | 0.01 ± 0.01 | 2.60 ± 0.38 | did not exhibit significant nicotinic antagonist activity over the concentration range tested | (±)di-N-allyl nicotinium iodide (DNANI)=(±)N-methyl nornicotinium iodide (NMNNI)=NMNI | 2.22 ± 1.26 and 3.53 ± 0.85 | effect on [3H]DA release / intrinsic agonist activity (in words) ([1]; rat striatal slices, 1-100 μM): evoked [^3 H]DA release and thus, possess intrinsic agonist activity at this concentration

Source: US5691365A, “Nicotinic receptor antagonists in the treatment of neuropharmacological disorders” (University of Kentucky Research Foundation, priority 1995, dated 1997)
